Experimental findings from ChEMBL document CHEMBL2417377, “Hit-to-lead optimization and kinase selectivity of imidazo[1,2-a]quinoxalin-4-amine derived JNK1 inhibitors” (Bioorg Med Chem Lett, 2013) are described below.

Assay [1] addresses T1, Peripheral plasma membrane protein CASK (Homo sapiens) (UniProt O14936).
T1 sequence (whole entry): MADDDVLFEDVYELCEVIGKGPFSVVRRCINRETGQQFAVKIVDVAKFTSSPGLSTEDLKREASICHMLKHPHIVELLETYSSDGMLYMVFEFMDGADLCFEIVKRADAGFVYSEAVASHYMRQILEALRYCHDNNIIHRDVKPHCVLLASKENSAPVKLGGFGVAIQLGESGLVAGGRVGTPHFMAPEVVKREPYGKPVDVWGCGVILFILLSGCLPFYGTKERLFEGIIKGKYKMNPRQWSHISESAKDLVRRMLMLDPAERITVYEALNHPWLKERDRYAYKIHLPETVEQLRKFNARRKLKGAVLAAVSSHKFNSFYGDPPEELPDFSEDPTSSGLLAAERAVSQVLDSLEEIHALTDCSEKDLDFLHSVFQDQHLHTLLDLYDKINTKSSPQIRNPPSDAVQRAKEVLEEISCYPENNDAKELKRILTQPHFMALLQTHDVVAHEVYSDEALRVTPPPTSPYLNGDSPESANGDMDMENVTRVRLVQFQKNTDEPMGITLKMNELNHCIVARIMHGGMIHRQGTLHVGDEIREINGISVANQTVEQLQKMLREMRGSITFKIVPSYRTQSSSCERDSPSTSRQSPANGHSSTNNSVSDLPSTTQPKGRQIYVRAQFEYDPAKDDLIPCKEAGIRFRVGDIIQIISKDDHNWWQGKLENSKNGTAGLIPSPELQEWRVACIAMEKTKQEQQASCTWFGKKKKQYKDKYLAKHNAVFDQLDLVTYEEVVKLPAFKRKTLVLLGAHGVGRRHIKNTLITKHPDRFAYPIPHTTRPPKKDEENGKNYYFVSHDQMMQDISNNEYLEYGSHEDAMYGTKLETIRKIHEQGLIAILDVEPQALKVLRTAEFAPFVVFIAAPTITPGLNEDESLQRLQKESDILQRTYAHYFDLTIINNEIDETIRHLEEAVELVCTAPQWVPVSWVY
Briefly: Inhibition of CASK in human PC3 cell lysates at 10 uM using desthiobiotin-tagged ATP probe AX9989 followed by trypsinization by LC/MS analysis. Conditions: PC-3.

In assay [2] the target is Ephrin type-A receptor 7 (Homo sapiens) (UniProt Q15375). In words: Inhibition of EphA7 in human PC3 cell lysates at 10 uM using desthiobiotin-tagged ATP probe AX9989 followed by trypsinization by LC/MS analysis. Conditions: PC-3.
Chain of Ephrin type-A receptor 7 (Homo sapiens) (Q15375 28-998 limits assumed): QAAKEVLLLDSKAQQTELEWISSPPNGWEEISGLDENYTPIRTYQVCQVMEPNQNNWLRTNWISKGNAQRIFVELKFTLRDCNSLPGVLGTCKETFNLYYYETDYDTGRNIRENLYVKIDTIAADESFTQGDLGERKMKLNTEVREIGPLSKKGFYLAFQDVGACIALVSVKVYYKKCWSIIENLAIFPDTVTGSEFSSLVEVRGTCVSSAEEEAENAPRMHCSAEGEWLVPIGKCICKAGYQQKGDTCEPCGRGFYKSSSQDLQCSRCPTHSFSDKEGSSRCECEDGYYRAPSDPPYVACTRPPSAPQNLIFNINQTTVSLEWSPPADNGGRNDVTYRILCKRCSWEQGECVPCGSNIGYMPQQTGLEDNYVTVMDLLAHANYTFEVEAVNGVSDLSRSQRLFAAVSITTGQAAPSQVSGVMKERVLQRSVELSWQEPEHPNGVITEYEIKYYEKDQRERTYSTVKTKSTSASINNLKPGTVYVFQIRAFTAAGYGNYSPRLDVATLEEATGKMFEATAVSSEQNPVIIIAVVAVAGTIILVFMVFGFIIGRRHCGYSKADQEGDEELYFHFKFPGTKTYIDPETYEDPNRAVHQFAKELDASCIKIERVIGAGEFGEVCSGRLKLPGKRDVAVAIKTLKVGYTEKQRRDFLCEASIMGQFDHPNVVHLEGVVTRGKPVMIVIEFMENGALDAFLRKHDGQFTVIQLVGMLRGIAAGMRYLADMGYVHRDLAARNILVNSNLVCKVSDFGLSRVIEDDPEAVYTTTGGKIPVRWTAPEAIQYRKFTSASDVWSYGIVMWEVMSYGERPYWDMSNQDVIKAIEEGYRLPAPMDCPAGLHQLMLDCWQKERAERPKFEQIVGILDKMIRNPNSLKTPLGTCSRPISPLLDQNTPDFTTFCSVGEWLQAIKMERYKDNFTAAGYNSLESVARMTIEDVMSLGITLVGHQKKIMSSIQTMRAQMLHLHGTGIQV
The target of assay [3] is T2, Microtubule-associated serine/threonine-protein kinase 3 (Homo sapiens, UniProt O60307). Briefly: Inhibition of MAST3 in human HuH7 cell lysates. The arrangement: species or system Huh-7.
T2 sequence (O60307 whole entry): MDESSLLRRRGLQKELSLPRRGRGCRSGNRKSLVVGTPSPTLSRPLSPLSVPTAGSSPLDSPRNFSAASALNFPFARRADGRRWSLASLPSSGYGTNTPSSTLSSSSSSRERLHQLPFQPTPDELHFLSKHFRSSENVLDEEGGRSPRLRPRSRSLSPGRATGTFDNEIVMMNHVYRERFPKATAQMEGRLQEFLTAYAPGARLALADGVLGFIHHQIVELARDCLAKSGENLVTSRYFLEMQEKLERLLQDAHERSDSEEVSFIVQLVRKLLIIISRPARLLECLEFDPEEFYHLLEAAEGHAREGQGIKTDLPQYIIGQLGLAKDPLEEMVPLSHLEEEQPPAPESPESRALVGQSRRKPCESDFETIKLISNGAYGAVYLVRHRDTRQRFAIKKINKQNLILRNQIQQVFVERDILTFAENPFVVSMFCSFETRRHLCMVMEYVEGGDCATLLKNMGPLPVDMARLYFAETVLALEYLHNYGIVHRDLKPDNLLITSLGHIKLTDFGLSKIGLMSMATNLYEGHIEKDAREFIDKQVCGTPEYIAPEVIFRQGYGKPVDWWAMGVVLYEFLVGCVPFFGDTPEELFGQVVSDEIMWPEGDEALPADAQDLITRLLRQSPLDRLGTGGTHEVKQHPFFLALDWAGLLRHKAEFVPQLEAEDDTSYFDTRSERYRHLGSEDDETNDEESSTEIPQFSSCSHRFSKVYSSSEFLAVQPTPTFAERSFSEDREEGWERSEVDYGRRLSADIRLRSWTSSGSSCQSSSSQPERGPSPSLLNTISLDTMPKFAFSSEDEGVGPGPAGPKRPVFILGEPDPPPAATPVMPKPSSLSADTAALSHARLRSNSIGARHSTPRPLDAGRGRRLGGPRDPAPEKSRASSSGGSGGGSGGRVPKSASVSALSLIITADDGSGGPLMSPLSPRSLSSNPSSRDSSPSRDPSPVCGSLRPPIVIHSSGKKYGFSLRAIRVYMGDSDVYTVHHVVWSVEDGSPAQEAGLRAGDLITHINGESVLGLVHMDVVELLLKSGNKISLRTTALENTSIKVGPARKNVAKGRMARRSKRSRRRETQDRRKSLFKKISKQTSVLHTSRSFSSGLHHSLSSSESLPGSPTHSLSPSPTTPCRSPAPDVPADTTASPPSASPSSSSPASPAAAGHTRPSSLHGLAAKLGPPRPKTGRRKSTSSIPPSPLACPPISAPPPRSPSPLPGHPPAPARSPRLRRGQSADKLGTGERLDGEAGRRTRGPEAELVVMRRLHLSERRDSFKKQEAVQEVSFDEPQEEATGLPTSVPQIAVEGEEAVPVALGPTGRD
For assay [4], the target named is Microtubule-associated serine/threonine-protein kinase 4 (Homo sapiens) (UniProt O15021). Briefly: Inhibition of MAST4 in human HuH7 cell lysates at 10 uM. Conditions: Huh-7.
Assay [5] deals with Serine/threonine-protein kinase Nek7 (Homo sapiens) (UniProt Q8TDX7). Briefly: Inhibition of NEK7 in human PC3 cell lysates at 10 uM using desthiobiotin-tagged ATP probe AX9989 followed by trypsinization by LC/MS analysis. The following applies: PC-3.
Chain of Serine/threonine-protein kinase Nek7 (Homo sapiens) (Q8TDX7 whole entry, looked up): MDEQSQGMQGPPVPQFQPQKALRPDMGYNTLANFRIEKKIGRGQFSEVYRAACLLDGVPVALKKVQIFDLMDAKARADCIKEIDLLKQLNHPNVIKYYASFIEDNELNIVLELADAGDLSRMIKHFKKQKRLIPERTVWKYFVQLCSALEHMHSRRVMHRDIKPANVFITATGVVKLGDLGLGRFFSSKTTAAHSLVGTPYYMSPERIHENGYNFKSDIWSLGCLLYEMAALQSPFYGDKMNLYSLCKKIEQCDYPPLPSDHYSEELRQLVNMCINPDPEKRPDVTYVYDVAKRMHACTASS
Assay [6] concerns the target Protein kinase C beta type (Homo sapiens) (UniProt P05771). In words: Inhibition of PKCbeta in human PC3 cell lysates at 10 uM using desthiobiotin-tagged ATP probe AX9989 followed by trypsinization by LC/MS analysis. Conditions: PC-3.
In assay [7] the target is Mitogen-activated protein kinase kinase kinase 20 (Homo sapiens) (UniProt Q9NYL2). In words: Inhibition of ZAK in human PC3 cell lysates at 10 uM using desthiobiotin-tagged ATP probe AX9989 followed by trypsinization by LC/MS analysis. The following applies: PC-3.
Chain of Mitogen-activated protein kinase kinase kinase 20 (Homo sapiens) (Q9NYL2 2-800 limits assumed): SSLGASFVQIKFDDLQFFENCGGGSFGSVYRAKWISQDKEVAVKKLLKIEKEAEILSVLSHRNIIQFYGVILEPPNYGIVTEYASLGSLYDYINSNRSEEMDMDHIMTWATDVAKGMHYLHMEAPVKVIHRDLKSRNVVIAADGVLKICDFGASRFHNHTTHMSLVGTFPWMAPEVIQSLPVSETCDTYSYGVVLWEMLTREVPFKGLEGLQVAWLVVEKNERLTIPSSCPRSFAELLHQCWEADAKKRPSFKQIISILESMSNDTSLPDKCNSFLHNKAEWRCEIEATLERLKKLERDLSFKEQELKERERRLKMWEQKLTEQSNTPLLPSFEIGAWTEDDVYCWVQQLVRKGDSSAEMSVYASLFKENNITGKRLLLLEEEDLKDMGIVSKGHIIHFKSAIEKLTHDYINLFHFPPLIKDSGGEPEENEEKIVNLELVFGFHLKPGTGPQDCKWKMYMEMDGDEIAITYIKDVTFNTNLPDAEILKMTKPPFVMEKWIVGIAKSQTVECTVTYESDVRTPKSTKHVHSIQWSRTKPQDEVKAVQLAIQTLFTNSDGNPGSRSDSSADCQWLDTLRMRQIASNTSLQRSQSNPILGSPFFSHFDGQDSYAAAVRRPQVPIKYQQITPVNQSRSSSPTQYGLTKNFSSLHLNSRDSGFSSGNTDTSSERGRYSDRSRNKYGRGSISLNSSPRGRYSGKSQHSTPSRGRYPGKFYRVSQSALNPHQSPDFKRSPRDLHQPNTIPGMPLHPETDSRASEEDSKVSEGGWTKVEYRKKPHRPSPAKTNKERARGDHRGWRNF
Assay [8] concerns the target T2, Microtubule-associated serine/threonine-protein kinase 3. In words: Inhibition of MAST3 in human HuH7 cell lysates at 10 uM. Conditions: Huh-7.
Assay [9] has as its target T3, Mitogen-activated protein kinase kinase kinase 2 (Homo sapiens) (UniProt Q9Y2U5).
T3 sequence (whole entry): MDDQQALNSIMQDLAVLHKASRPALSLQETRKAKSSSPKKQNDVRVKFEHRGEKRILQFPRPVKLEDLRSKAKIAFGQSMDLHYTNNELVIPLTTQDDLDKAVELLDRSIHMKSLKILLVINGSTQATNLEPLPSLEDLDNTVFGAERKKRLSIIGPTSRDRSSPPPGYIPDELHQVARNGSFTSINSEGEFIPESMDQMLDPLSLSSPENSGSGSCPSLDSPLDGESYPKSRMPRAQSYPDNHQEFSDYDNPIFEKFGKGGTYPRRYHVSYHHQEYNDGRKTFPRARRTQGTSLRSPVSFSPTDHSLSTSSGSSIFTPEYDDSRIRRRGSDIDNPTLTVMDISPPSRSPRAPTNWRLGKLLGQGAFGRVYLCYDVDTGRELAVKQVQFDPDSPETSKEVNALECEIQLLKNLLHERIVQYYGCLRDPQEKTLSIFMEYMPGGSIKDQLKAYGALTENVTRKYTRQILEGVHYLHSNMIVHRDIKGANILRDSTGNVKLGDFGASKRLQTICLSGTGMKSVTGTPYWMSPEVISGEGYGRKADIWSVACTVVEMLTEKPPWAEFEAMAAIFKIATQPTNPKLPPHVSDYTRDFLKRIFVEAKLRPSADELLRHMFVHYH
In words: Inhibition of MAP3K2 in human PC3 cell lysates at 10 uM using desthiobiotin-tagged ATP probe AX9989 followed by trypsinization by LC/MS analysis. The following applies: PC-3.

Chain of Protein kinase C beta type (Homo sapiens) (P05771 2-671 limits assumed): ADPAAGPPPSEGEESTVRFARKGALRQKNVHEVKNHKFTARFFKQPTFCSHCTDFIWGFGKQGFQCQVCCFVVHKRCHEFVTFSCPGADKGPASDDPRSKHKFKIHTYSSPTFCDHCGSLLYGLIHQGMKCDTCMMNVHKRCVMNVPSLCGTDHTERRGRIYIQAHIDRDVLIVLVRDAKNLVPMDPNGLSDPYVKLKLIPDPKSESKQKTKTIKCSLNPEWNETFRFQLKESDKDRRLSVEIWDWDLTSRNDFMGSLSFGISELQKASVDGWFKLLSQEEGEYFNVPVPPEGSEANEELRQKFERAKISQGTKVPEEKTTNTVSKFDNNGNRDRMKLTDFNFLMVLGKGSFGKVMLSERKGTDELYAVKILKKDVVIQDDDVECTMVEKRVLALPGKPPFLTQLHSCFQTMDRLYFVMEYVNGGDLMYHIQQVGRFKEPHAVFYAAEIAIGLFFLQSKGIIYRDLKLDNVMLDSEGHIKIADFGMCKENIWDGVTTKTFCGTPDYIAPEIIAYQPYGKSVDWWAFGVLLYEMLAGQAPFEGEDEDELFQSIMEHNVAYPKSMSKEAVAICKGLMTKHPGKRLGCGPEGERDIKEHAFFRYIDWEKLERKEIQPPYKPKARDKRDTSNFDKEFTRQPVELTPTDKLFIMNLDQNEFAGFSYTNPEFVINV

As a reminder, the inhibition is the relative decrease from the control value, in per cent. A word on the IC50: it is the concentration that gives 50% inhibition. A high value points to weaker potency in that assay. For `CC[C@@H](NC(=O)c1ccc2nc(N[C@H]3CC[C@H](O)CC3)c3nccn3c2c1)c1ccccc1`, the inhibition in [1] is under 35%; in assay [2] it was under 35%; in [4], 79.8%; in assay [5], under 35%; in assay [6], under 35%; in assay [7], under 35%. Further, the inhibition in [8] is 87.5%; in assay [9], under 35%. Also, in assay [3], the IC50 was found to be 1400 nM.

On to `O=C(N[C@H](CO)c1ccccc1)c1ccc2nc(N[C@H]3CC[C@H](O)CC3)c3nccn3c2c1`, for which the inhibition in assay [1] is under 35%; in assay [2], under 35%; in assay [4], over 88%; in assay [5], under 35%; in assay [6], under 35%; in assay [7] it was under 35%. For the same compound, the inhibition in assay [8] is 97.2%; in assay [9] it was under 35%. This compound also showed a 50% inhibitory concentration (IC50) in assay [3] of 290 nM.

Consider `O=C(NC1(c2ccccc2)CCC1)c1ccc2nc(N[C@H]3CC[C@H](O)CC3)c3nccn3c2c1`, for which the inhibition in assay [1], in [2], in assay [5], in [6], in assay [7] and in assay [9] was under 35% in each case.

As for `CCC[C@@H](NC(=O)c1ccc2nc(N[C@H]3CC[C@H](O)CC3)c3nccn3c2c1)c1ccccc1`, the inhibition is under 35% in assay [1]; under 35% in assay [2]; 75.6% in assay [4]; under 35% in [5]; under 35% in assay [6]; under 35% in assay [7]. Besides, the inhibition in assay [8] was 80.6%; in assay [9] it was under 35%. In assay [3], this compound came in with an IC50 of 2400 nM.

Regarding `CC(C)(NC(=O)c1ccc2nc(N[C@H]3CC[C@H](O)CC3)c3nccn3c2c1)c1ccccc1`, the inhibition in [1], in assay [2], in assay [5], in [6], in assay [7] and in assay [9] was under 35% in each case.

Turning to `O=C(O)c1ccc2nc(N[C@H]3CC[C@H](O)CC3)c3nccn3c2c1`, the inhibition in assay [1], in assay [2], in assay [5], in assay [6], in [7] and in [9] was under 35% throughout.

As for `O=C(NC1(c2ccccc2)CC1)c1ccc2nc(N[C@H]3CC[C@H](O)CC3)c3nccn3c2c1`, the inhibition in [1] was under 35%; in assay [2], under 35%; in assay [4], over 88%; in assay [5], under 35%; in [6], under 35%; in assay [7], under 35%. Moreover, the inhibition in assay [8] was 97.7%; in assay [9] it was under 35%. This compound also came in with an IC50 in assay [3] of 240 nM.

As for `NC(=O)c1ccc2nc(N[C@H]3CC[C@H](O)CC3)c3nccn3c2c1`, the inhibition in assay [1], in assay [2], in assay [5], in assay [6], in assay [7] and in assay [9] was under 35% throughout.

As for `C[C@@H](NC(=O)c1ccc2nc(N[C@H]3CC[C@H](O)CC3)c3nccn3c2c1)c1ccccc1`, the inhibition in [1] is under 35%; in assay [2], under 35%; in assay [4], 76.1%; in assay [5], under 35%; in assay [6] it was under 35%; in [7] it was under 35%. Further, the inhibition in [8] was 90.8%; in [9] it was under 35%. Half-maximal inhibition in [3] (IC50) was put at 1010 nM.

`C[C@H](NC(=O)c1ccc2nc(N[C@H]3CC[C@H](O)CC3)c3nccn3c2c1)c1ccccc1`: the inhibition in assay [1], in assay [2], in assay [5], in assay [6], in [7] and in assay [9] was under 35% in each case.

In the case of `O=C(NC1(c2ccc(F)cc2)CC1)c1ccc2nc(N[C@H]3CC[C@H](O)CC3)c3nccn3c2c1`, the inhibition in assay [1] is under 35%; in assay [2], under 35%; in [4], 78.7%; in assay [5], under 35%; in [6], under 35%; in assay [7], under 35%. Also, the inhibition is 93.1% in assay [8] and under 35% in [9]. In assay [3], this compound registered an IC50 of 740 nM.

Take `O=C(NC1(Cc2ccc(F)cc2)CC1)c1ccc2nc(N[C@H]3CC[C@H](O)CC3)c3nccn3c2c1`: the inhibition in assay [1], in assay [2], in assay [5], in assay [6], in [7] and in assay [9] was under 35% each time.
